Assay results taken from patent publication US10138207B2, “Benzomorphan analogs and the use thereof” (priority 2012, dated 2018).

How the values were obtained:
κ opioid receptor [1] = molecular target: T1, κ opioid receptor (Homo sapiens, UniProt P41145); assay: biochemical; format: binding; set-up: expressed in transfected cells; host or cells: HEK 293 (in-house membrane prep); settings: HEK-293 or CHO cells
κ opioid receptor [2] = molecular target: T1, κ opioid receptor; assay: κ-opioid receptor [35S]GTPγS functional assay, HEK-293 or CHO cells; format: biochemical; set-up: expressed in transfected cells; host or cells: U-2 OS (in-house membranes); settings: for Emax: relative to U69,593
Protocol: Membranes from recombinant HEK-293 cells, CHO or U-2 OS cells expressing the recombinant human κ opioid receptor (κ) were prepared by lysing cells in ice cold hypotonic buffer (2.5 mM MgCl2, 50 mM HEPES, pH 7.4) (10 mL/10 cm dish) followed by homogenization with a tissue grinder/Teflon pestle. Membranes from a cell line naturally expressing kappa opioid receptors can also be used. Membranes were collected by centrifugation at 30,000×g for 15 min at 4° C. and pellets were resuspended in hypotonic buffer to a final concentration of 1-3 mg/mL. Protein concentrations were determined using the BioRad protein assay reagent with bovine serum albumen as standard. Aliquots of κ receptor membranes were stored at −80° C.
Plates were incubated for 30 min at a temperature of about 25° C. with shaking.

μ-opioid receptor [3] = molecular target: T2, μ-opioid receptor (Homo sapiens, UniProt P35372); assay: μ-opioid receptor [35S]GTPγS functional assay, HEK-293 or CHO cells; settings: for Emax: read-out: GTPγS μ Emax
T2 sequence (P35372 whole entry, species assumed): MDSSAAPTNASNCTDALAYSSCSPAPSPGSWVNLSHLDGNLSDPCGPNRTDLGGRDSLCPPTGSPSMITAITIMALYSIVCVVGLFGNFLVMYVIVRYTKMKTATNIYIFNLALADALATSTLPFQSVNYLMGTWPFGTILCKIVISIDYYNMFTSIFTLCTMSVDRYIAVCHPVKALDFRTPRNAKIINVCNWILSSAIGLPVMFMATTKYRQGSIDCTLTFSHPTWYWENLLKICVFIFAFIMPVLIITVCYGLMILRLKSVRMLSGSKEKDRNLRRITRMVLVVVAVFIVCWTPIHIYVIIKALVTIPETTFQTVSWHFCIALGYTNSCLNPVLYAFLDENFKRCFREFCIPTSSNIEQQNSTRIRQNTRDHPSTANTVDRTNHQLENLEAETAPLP

μ-opioid receptor [4] = molecular target: T2, μ-opioid receptor; assay: μ-opioid receptor [35S]GTPγS functional assay, U-2 OS cells; format: biochemical; set-up: expressed in transfected cells; host or cells: U-2 OS; settings: for Emax: read-out: GTPγS μ Emax
κ opioid receptor [5] = molecular target: T1, κ opioid receptor; assay: κ-opioid receptor [35S]GTPγS functional assay, U-2 OS cells; format: biochemical; set-up: expressed in transfected cells; host or cells: U-2 OS (in-house membranes); settings: U-2 OS cells
[6] = U-2 OS cells, relative to DAMGO
[7] = HEK-293 or CHO cells, bound in μM, read-out: GTPγS κ EC50
[8] = U-2 OS cells, read-out: GTPγS μ EC50
[9] = HEK-293 or CHO cells, read-out: GTPγS κ EC50

T1 sequence (P41145 whole entry): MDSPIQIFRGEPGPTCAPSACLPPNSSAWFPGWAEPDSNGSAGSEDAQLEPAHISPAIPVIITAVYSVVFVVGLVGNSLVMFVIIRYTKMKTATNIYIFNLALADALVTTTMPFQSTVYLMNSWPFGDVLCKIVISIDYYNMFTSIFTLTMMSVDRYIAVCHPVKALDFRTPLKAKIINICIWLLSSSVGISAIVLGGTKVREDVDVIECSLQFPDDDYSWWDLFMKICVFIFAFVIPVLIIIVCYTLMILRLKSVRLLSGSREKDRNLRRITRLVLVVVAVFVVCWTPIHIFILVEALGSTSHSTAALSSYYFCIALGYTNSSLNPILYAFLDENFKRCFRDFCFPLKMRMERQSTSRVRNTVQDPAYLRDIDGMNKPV

Structure (SMILES)	Ki (κ opioid receptor [1])	EC50 (κ opioid receptor [2])	Emax (κ opioid receptor [2]; HEK-293 or CHO cells)	EC50 (μ-opioid receptor [3])	Emax (μ-opioid receptor [3])	EC50 (μ-opioid receptor [4]; GTPγS μ EC50, U-2 OS cells)	Emax (μ-opioid receptor [4]; [6])	EC50 (κ opioid receptor [2]; [7])	EC50 (μ-opioid receptor [4]; [8])	EC50 (κ opioid receptor [2]; [9])	EC50 (κ opioid receptor [5]; bound in μM, read-out: GTPγS κ EC50)	Emax (κ opioid receptor [5]; relative to U69,593, read-out: GTPγS κ Emax)	GTPγS μ Emax (μ-opioid receptor [4]; [6])	EC50 (μ-opioid receptor [4]; U-2 OS cells, bound in μM, read-out: GTPγS μ EC50)
CN(C(=O)/C=C/c1ccoc1)[C@@H]1[C@H]2Cc3ccc(O)cc3[C@@]1(C)CCN2CC1CC1 [Compound 77, (E)-N-((2R,6R,11S)-3-(cyclopropylmethyl)-8-hydroxy-6-methyl-1,2,3,4,5,6-hexahydro-2,6-methanobenzo[d]azocin-11-yl)-3-(furan-3-yl)-N-methylacrylamide]	4.3 ± 0.91 nM	> 20 µM	-1%	144 ± 11 nM	56.5 ± 2.02%	0.029 ± 0.00086 µM	77.7 ± 0.88%							
CN1CC[C@]2(C)c3cc(O)ccc3CC1C2N(C)c1ccc(CCS(N)(=O)=O)cc1 (stereo in doubt) [Compound 51, 2-(4-(((2R,6R,11S)-8-hydroxy-3,6-dimethyl-1,2,3,4,5,6-hexahydro-2,6-methanobenzo[d]azocin-11-yl)(methyl)amino)phenyl)ethanesulfonamide]	7.83 ± 0.95 nM			1.44 ± 0.44 nM	100 ± 7.22%		113 ± 2.65%	> 20 µM	0.00021 ± 2.1e-05 µM					
COc1ccc2c(c1)[C@@]1(C)CCN(C)C(C2)[C@@H]1CNC(=O)Cc1ccc(Cl)c(Cl)c1 [Compound 75, 2-(3,4-dichlorophenyl)-N-(((6S,11S)-8-methoxy-3,6-dimethyl-1,2,3,4,5,6-hexahydro-2,6-methanobenzo[d]azocin-11-yl)methyl)acetamide]	185 ± 51.3 nM	> 20 µM	0.33 ± 0.67%	62.3 ± 13.7 nM	112 ± 2.4%	0.0127 ± 0.00152 µM	104 ± 2.67%							
CN(C(=O)Nc1ccc(C#N)cc1)[C@H]1C2Cc3ccc(O)cc3[C@@]1(C)CCN2CC1CCC1 [Compound 88, 3-(4-cyanophenyl)-1-((6R,11R)-3-(cyclobutylmethyl)-8-hydroxy-6-methyl-1,2,3,4,5,6-hexahydro-2,6-methanobenzo[d]azocin-11-yl)-1-methylurea]	4.74 ± 1.55 nM		18.5 ± 2.84%	7.58 ± 1.06 nM	74.7 ± 1.86%		85.7 ± 2.33%		0.00167 ± 0.00016 µM	0.0247 ± 0.00535 µM				
CN(C(=O)Nc1ccc(C#N)cc1)C1C2Cc3ccc(O)cc3[C@@]1(C)CCN2CCc1ccccc1 (stereo in doubt) [Compound 87, 3-(4-cyanophenyl)-1-((2R,6R,11S)-8-hydroxy-6-methyl-3-phenethyl-1,2,3,4,5,6-hexahydro-2,6-methanobenzo[d]azocin-11-yl)-1-methylurea]	1.21 ± 0.24 nM		10.8 ± 1.49%	5.29 ± 1.1 nM	96.3 ± 2.96%		99.3 ± 2.03%		0.00208 ± 0.00012 µM	0.024 ± 0.00194 µM				
COc1ccc2c(c1)[C@@]1(C)CCN(C)C(C2)[C@]1(O)c1cccc(C(N)=O)c1 [Compound 63, 3-((6R,11S)-11-hydroxy-8-methoxy-3,6-dimethyl-1,2,3,4,5,6-hexahydro-2,6-methanobenzo[d]azocin-11-yl)benzamide]	340 ± 90.9 nM			> 20000 nM				> 20 µM						
CN1CC[C@]2(C)c3cc(O)ccc3C[C@@H]1[C@@H]2N(C)C(=O)c1ccccc1 [Compound 39, N-((2R,6R,11R)-8-hydroxy-3,6-dimethyl-1,2,3,4,5,6-hexahydro-2,6-methanobenzo[d]azocin-11-yl)-N-methylbenzamide]	82 ± 10.4 nM		-1%	321 ± 22.2 nM	89.8 ± 5.39%		101 ± 3.76%	> 20 µM	0.0183 ± 0.00122 µM					
CN(C(=O)Nc1ccc(C#N)cc1)[C@H]1C2Cc3ccc(O)cc3[C@@]1(C)CCN2CC1CC1 [Compound 80, 3-(4-cyanophenyl)-1-((6R,11R)-3-(cyclopropylmethyl)-8-hydroxy-6-methyl-1,2,3,4,5,6-hexahydro-2,6-methanobenzo[d]azocin-11-yl)-1-methylurea]	1.19 ± 0.32 nM			216 ± 38.7 nM	92.4 ± 3.23%		113 ± 3.53%	> 20 µM	0.0002 ± 1.3e-05 µM					
CN1CC[C@]2(C)c3cc(O)ccc3C[C@@H]1[C@H]2Nc1ccc(CCS(N)(=O)=O)cc1 [Compound 50, 2-(4-(((2R,6R,11S)-8-hydroxy-3,6-dimethyl-1,2,3,4,5,6-hexahydro-2,6-methanobenzo[d]azocin-11-yl)amino)phenyl)ethanesulfonamide]	58.3 ± 10.1 nM			189 ± 13.7 nM	93.8 ± 2.17%		86.5 ± 4.14%	> 20 µM	0.042 ± 0.0109 µM		> 20 µM	9.78 ± 2.97%		
CN1CC[C@@]2(C)c3cc(O)ccc3C[C@@H]1[C@@H]2NCC1CCN(C(=O)OC(C)(C)C)CC1 [Compound 30, tert-butyl 4-((((2R,6S,11R)-8-hydroxy-3,6-dimethyl-1,2,3,4,5,6-hexahydro-2,6-methanobenzo[d]azocin-11-yl)amino)methyl)piperidine-1-carboxylate]	7.66 ± 1.96 nM		0.33 ± 0.67%	270 ± 33.9 nM	49.7 ± 3.67%			> 20 µM	0.0336 ± 0.00817 µM				91.70 ± 4.33%	
CN1CC[C@@]2(C)c3cc(O)ccc3C[C@@H]1[C@@H]2N(C)CC1CCN(C(=O)OC(C)(C)C)CC1 [Compound 31, tert-butyl 4-((((2R,6S,11R)-8-hydroxy-3,6-dimethyl-1,2,3,4,5,6-hexahydro-2,6-methanobenzo[d]azocin-11-yl)(methyl)amino)methyl)piperidine-1-carboxylate]	0.34 ± 0.09 nM		1%	12.3 ± 0.95 nM	61 ± 3%		94.3 ± 3.18%	> 20 µM	0.00041 ± 0.00038 µM					
CN1CC[C@]2(C)c3cc(O)ccc3CC1[C@H]2COc1ccc(C(N)=O)cc1 [Compound 44, 4-(((6S,11S)-8-hydroxy-3,6-dimethyl-1,2,3,4,5,6-hexahydro-2,6-methanobenzo[d]azocin-11-yl)methoxy)benzamide]	166 ± 62.3 nM	0.394 ± 0.0884 µM	17.7 ± 1.2%	718 ± 249 nM	65 ± 2.52%									
CN(C(=O)Nc1ccc(C#N)cc1)C1C2Cc3ccc(O)cc3[C@@]1(C)CCN2Cc1ccoc1 (stereo in doubt) [Compound 90, 3-(4-cyanophenyl)-1-((2R,6R,11S)-3-(furan-3-ylmethyl)-8-hydroxy-6-methyl-1,2,3,4,5,6-hexahydro-2,6-methanobenzo[d]azocin-11-yl)-1-methylurea]	1.74 ± 0.45 nM		1%	5.92 ± 1.82 nM	32.7 ± 5.78%		14 ± 1%	> 20 µM	0.00702 ± 0.00189 µM					
CN(C(=O)Nc1ccc(C#N)cc1)[C@H]1C2Cc3ccc(O)cc3[C@@]1(C)CCN2Cc1cccc(F)c1F [Compound 89, 3-(4-cyanophenyl)-1-((6R,11R)-3-(2,3-difluorobenzyl)-8-hydroxy-6-methyl-1,2,3,4,5,6-hexahydro-2,6-methanobenzo[d]azocin-11-yl)-1-methylurea]	9.2 ± 0.9 nM			> 20000 nM			1.17 ± 1.01%	> 20 µM						> 20 µM
CN1CC[C@]2(C)c3cc(O)ccc3CC1[C@@H]2N1Cc2ccccc2NC1=O [Compound 91]	174 ± 25.7 nM		34.7 ± 5.93%	409 ± 19.5 nM	89.7 ± 5.9%		71.3 ± 3.53%		0.378 ± 0.0619 µM	2.81 ± 0.129 µM				
